Test results: patent US20190119282A1, “IMIDAZOPYRIDAZINES USEFUL AS INHIBITORS OF THE PAR-2 SIGNALING PATHWAY” (Vertex Pharmaceuticals Incorporated, priority 2013, published 2019)
Marks after values point to notes of the source that are not given here.

Tests used:
[1] = target: T1, PAR2 (HT-29 cells, SLIGKV activation) (Homo sapiens, UniProt P55085); test: Ca FLIPR TETRA assay, ANTAGONIST mode, stimulation with 8 μM SLIGKV; type: cell-based; settings: HT-29 cells, antagonist mode, stimulation with 8 μM SLIGKV
T1 construct: host or cells: HT-29 cells
T1 sequence (P55085 26-397): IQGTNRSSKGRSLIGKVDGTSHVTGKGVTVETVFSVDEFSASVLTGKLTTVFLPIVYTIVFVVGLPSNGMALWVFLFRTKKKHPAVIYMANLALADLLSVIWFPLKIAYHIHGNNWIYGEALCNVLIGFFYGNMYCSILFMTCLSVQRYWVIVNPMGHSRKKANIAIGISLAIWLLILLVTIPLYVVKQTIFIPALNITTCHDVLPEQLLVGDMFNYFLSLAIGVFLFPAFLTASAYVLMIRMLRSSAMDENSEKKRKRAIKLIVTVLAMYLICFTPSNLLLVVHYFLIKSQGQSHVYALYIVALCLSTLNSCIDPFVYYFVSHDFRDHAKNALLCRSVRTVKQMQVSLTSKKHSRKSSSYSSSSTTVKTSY
In short: (§1)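 Cells plated overnight at 37 °C, 5% CO2 in 1% FBS medium; dye loading 45 min at 37 °C then 15 min r.t.; compound added from DMSO/HBSS dilution; first read for intrinsic Ca2+ activation; 30 min r.t. incubation; antagonist read after addition of the fixed activator (8 μM SLIGKV, 1 U/mL thrombin, 3.1 U/mL trypsin or 0.6 μM UTP).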

[2] = target: T2, PAR2 (HT-29 cells, trypsin activation) (Homo sapiens, UniProt P55085); test: Ca FLIPR TETRA assay, ANTAGONIST mode, stimulation with 3.1 U/mL trypsin; type: cell-based; settings: HT-29 cells, antagonist mode, stimulation with 3.1 U/mL trypsin
T2 construct: host or cells: HT-29 cells
T2 sequence (P55085 26-397): T1 sequence (P55085 26-397)
In short: as §1

[3] = test system: Thrombin-stimulated Ca2+ response in HT-29 cells; test: Ca FLIPR TETRA assay, ANTAGONIST mode, stimulation with 1 U/mL Thrombin; type: cell-based, human; settings: Homo sapiens; HT-29 cells, antagonist mode, stimulation with 1 U/mL Thrombin
In short: as §1

[4] = test system: UTP-stimulated Ca2+ response in HT-29 cells; test: Ca FLIPR TETRA assay, ANTAGONIST mode, stimulation with 0.6 μM UTP; type: cell-based, human; settings: Homo sapiens; HT-29 cells, antagonist mode, stimulation with 0.6 μM UTP
In short: as §1

[5] = In vivo rat pharmacokinetics (intravenous and oral); settings: plasma; for clearance: intravenous 0.5 to 1 mg/kg, read-out: Clp; for Vd: intravenous, read-out: Vss; for bioavailability: oral by gavage; for half-life: read-out: T ½ (converted)
Experimental: Example 61: Protocol for Testing PAR2 Compounds In Vivo Rat Pharmacokinetics Experiments
Compounds delivered by intravenous route were formulated using a solution formulation consisting of 5% N-methylpyrrolidone 10% Vitamin E-TPGS and 85% water (v/v/) or a solution formulation consisting of 25% N-methylpyrrolidone 35% polyethylene glycol 400 and 40% water (v/v/). Intravenous formulations were administered by a bolus injection (over approximately 10 seconds) using a hypodermic needle attaches to a syringe (tail vein). The dose volume was varied from 1 to 2 mL/kg and the dose was varied from 0.5 to 1 mg/kg. Compounds delivered orally were formulated as a solution formulation consisting of 5% N-methylpyrrolidone 10% Vitamin E-TPGS and 85% water (v/v/) or as fine suspension using a cellulose derivative suspending agent with or without the addition of a wetting agent/surfactant. Milling of large particles was performed as needed to reduce particle size using focused electroacoustic milling, homogenization or low energy media milling. A spray-dried solid dispersion was prepared for key compounds using 1:1 combination with cellulose derivatives. Test compounds were administered orally by gavage using a gavage plastic needle attached to a syringe. The dose volume was varied from 5 to 10 mL/kg and the dose was varied from 1 to 600 mg/kg.
Rats were bled by venipuncture (jugular vein) and the samples were collected into tubes containing K3EDTA. The tubes were placed on wet ice until processed. The samples were centrifuged for approximately 10 minutes (at approximately 4° C.) within approximately 30 minutes of collection to prepare plasma or diluted in citrate buffer (1:3) and stored frozen (approximately −30° C.). Thawed plasma or whole blood samples were extracted by protein precipitation using an organic solvent followed by centrifugation. The supernatants were separated by high-performance liquid chromatography coupled to mass spectrometry detection. A calibration curve was prepared using reference standard compounds spiked into either blank plasma or whole blood matrices and extracted similarly to unknown samples. Pharmacokinetic parameters were calculated using non-compartmental analysis.

[6] = test system: carrageenan-induced paw edema; test: Rat carrageenan-induced paw edema model; type: in vivo, Sprague Dawley rats; settings: for % inhibition of an established carrageenan induced rat paw edema: given 2 hours post carrageenan challenge; for % inhibition of carrageenan induced paw edema: given before carrageenan challenge
Experimental: (§2) Male Sprague Dawley rats and BALB/c mice were housed in groups in a temperature controlled room and were acclimatized in the animal facility for at least three days prior to use. Experiments were performed during the light phase of the cycle. Animals have food and water ad libitum.
Example 63: Rat Carrageenan-Induced Paw Edema Model
Peripheral inflammation was induced by intra-plantar administration of 100 ul of a 1% w/volume (in saline) carrageenan solution under isoflurane anesthesia. The degree of swelling was assessed using the plethysmometer at 2-3-4-5-6 h after carrageenan injection. Test compound or vehicle (0.5% MC/0.1% SDS) was systemically administered at the indicated doses in a volume of 5 mL/kg either I-3 hour before carrageenan challenge (Table 9) or 2 hours post carrageenan challenge (Table 10).
(§3) Data are expressed as the mean % effect. Statistical significance was assessed using t-test for comparison between naive and inflamed rats, and one-way ANOVA followed by post-hoc comparison test for overall drug effectiveness. A difference between groups is considered significant with a p value of <0.05. *, p<0.05; **, p<0.01; ***, p<0.001 vs. vehicle.

[7] = test system: tryptase-induced mechanical hypersensitivity; test: Rat tryptase-induced mechanical hypersensitivity model; type: in vivo, Sprague Dawley rats; settings: for % inhibition of tryptase-induced nociception: given 3-18 h before the tryptase challenge; for % inhibition of an established tryptase-induced nociception: given 30 minutes post tryptase challenge
Experimental: as §2
Example 64: Rat Tryptase-Induced Mechanical Hypersensitivity Model
Peripheral sensitization was induced by intra-dermal administration of 500 ng of tryptase in a volume of 10 ul PBS under isoflurane anesthesia. Rats were then placed on a wire mesh grid in separate compartments and allowed to acclimatize before testing. Mechanical hypersensitivity was assessed 30 min after tryptase injection using calibrated von Frey filaments applied perpendicular to the plantar surface of the affected paw using the up-and-down method. Test compounds or vehicle (0.5% MC/0.1% SDS) were systemically administered at doses indicated in a volume of 5 mL/kg 3-18 h before the tryptase challenge (Table 11) or 30 minutes post tryptase challenge (Table 12).
as §3

TNBS-induced colitis = test: Mouse TNBS-induced colitis model; type: in vivo, BALB/c mice; settings: mice
Experimental: as §2
Example 65: Mouse TNBS-Induced Colitis Model
Colitis was induced by intra-colonic administration of 1.5 mg of TNBS in 75 μl of 40% v/volume ethanol solution under isoflurane anesthesia at a depth of 4 cm from the anal verge. Mice were kept with their heads down for 30 additional seconds post administration to ensure distribution of TNBS. Disease activity scores were assessed for a period of 5 days starting prior to TNBS injection (baseline reading). […] Test compounds or vehicle (0.5% MC/0.1% SDS) were systemically administered at the indicated doses in a volume of 10 mL/kg each day for 5 days and starting 1 day before TNBS.
as §3

| SMILES | IC50 [1] [µM] | IC50 [2] [µM] | IC50 [3] [µM] | IC50 [4] [µM] | clearance [5] [mL/min/kg] | Vd [5] [L/kg] | bioavailability [5] [%] | half-life [5] [h] | % inhibition of carrageenan induced paw edema ([6]; dose 20 mg/kg) | further results |
| --- | --- | --- | --- | --- | --- | --- | --- | --- | --- | --- |
| CC(C)(C)c1cc(-c2ccc(F)cc2)nn2cc(C(=O)N3CCNC(=O)C3(C)C)nc12 [Compound I-191, 4-(8-(tert-butyl)-6-(4-fluorophenyl)imidazo[1,2-b]pyridazine-2-carbonyl)-3,3-dimethylpiperazin-2-one] | 0.0014 | 0.0023 | 0.32 | 0.44 | 0.7 | 3.2 | 66 | 56.9 | – | % inhibition of an established carrageenan induced rat paw edema ([6]; dose 0.6 mg/kg): 26%; % inhibition of an established carrageenan induced rat paw edema ([6]; dose 2 mg/kg): 40* %; % inhibition of an established carrageenan induced rat paw edema ([6]; dose 3 mg/kg): 46*** %; % inhibition of an established carrageenan induced rat paw edema ([6]; dose 6 mg/kg): 48* %; % inhibition of an established carrageenan induced rat paw edema ([6]; dose 10 mg/kg): 50*** %; % inhibition of an established carrageenan induced rat paw edema ([6]; dose 30 mg/kg): 57*** %; % inhibition of tryptase-induced nociception ([7]; dose 1 mg/kg): 26%; % inhibition of tryptase-induced nociception ([7]; dose 3 mg/kg): 36%; % inhibition of tryptase-induced nociception ([7]; dose 10 mg/kg): 40** %; % improvement in Disease activity scores (TNBS-induced colitis; dose 15 mg/kg each day for 5 days starting 1 day before TNBS): 21** %; % improvement in Disease activity scores (TNBS-induced colitis; dose 50 mg/kg each day for 5 days starting 1 day before TNBS): 36*** % |
| Cc1cc(-c2cc(C(C)C)c3nc(C(=O)N4CCNC(=O)C4(C)C)cn3n2)ccc1F [Compound I-244, 4-[6-(4-fluoro-3-methyl-phenyl)-8-isopropyl-imidazo[1,2-b]pyridazine-2-carbonyl]-3,3-dimethyl-piperazin-2-one] | 0.0075 | 0.0102 | 3.75 | 3.65 | 4.8 | 1.6 | 70 | 5.1 | 67*** % | % inhibition of carrageenan induced paw edema ([6]; dose 2 mg/kg): 42** %; % inhibition of carrageenan induced paw edema ([6]; dose 6 mg/kg): 51** %; % inhibition of an established tryptase-induced nociception ([7]; dose 2 mg/kg): 21* %; % inhibition of an established tryptase-induced nociception ([7]; dose 6 mg/kg): 43* %; % inhibition of an established tryptase-induced nociception ([7]; dose 20 mg/kg): 48* % |
| CC(C)(C)c1cc(-c2ccc(F)cc2)nn2cc(C(=O)N3CCN(C(=O)c4ccn[nH]4)CC3(C)C)nc12 [Compound I-201] | 0.0007 | 0.0009 | 0.37 | 0.56 | 10.9 | 3.3 | 55 | 4.3 | 60*** % | % inhibition of carrageenan induced paw edema ([6]; dose 5 mg/kg): 55** %; % inhibition of tryptase-induced nociception ([7]; dose 5 mg/kg): 52** %; % inhibition of tryptase-induced nociception ([7]; dose 15 mg/kg): 65*** % |
